{"source": "BindingDB's records for patent US10166249", "about": "(Bristol-Myers Squibb, 2019)", "target": "Sphingosine 1-phosphate receptor 1 (Homo sapiens, UniProt P21453)", "sequence (P21453 whole entry)": "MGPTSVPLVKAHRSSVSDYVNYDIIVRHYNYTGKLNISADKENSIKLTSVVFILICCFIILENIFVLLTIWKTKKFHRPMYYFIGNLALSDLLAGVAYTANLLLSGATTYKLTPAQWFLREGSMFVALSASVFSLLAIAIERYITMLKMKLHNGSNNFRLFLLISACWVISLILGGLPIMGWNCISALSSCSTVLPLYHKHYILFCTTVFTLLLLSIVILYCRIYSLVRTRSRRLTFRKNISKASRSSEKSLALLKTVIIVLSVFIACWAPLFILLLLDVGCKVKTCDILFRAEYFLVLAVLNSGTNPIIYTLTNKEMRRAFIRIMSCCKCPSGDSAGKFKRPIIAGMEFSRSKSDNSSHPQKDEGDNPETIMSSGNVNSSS", "test": "hS1P1 ERK Phosphorylation (S1P1 pERK)", "method": "hS1P1/CHO cells were plated into BD Amine 384-well plates the day before the assay. On the day of the assay, growth medium was removed and replaced with serum-free medium (Ham's F-12 Invitrogen) and incubated for 2 hours. Test compounds pre-diluted in HBSS (Gibco)/20 mM HEPES (Gibco) were transferred to the cell plates and incubated for 7 minutes at 37° C. Cells were lysed in lysis buffer (Perkin Elmer) and phospho-ERK was measured using the SureFire pERK kit (Perkin Elmer) as described by the manufacturer. Data was plotted as percentage activation of the test compound relative to the efficacy of 10 μM S1P."}
{"compound": "CCSCC[C@H]1CCc2cc([C@H]3CC[C@](N)(COP(=O)(O)O)C3)ccc2C1", "note": "[US10166249, Example 532]", "values": [{"measurement": "EC50", "result": "< 10", "unit": "nM"}]}
